Laboratory results: patent publication US20040198716A1, “Cysteine protease inhimbitors” (priority 2001, published 2004)

What was measured:
[1] = system: Human Rhinovirus serotype 1A; assay: Cell Culture 3C-Protease Activity Assay (protection of rhinovirus-infected cells); assay type: cell-based; conditions: for IC50: HeLa-H1 cells infected with Human Rhinovirus serotype 1A, 48 hours, alamarBlue cell survival, dilution series 250-0.98 μM, several values per compound = repeat determinations
Protocol: (§1) In this assay, 96 well micro titer plates were seeded with 10^4 HeLa-H1 (ATCC) cells per well and incubated in DMEM+10% FBS (Gibco) for 24 hours at 37° C., saturated humidity and 5% CO2. Human Rhinovirus serotype 1A (ATCC) were titered to produce a 30% cell kill and added to some wells of a 96 well plate, other wells were mock infected with media only, followed by incubation at 33° C., saturated humidity and 5% CO2 for 1 hour. Compounds were dissolved in DMSO, diluted in DMEM and added in a 9 step 2-fold dilution series (250, 125, 62.5, 31.25, 15.63, 7.81, 3.91, 1.95, 0.98 μM) 1 hour after virus treatment. Plates were incubated for 48 hours at 33° C., saturated humidity and 5% CO2 in a final volume of 100 μL FBS free DMEM. Cell survival was measured by the addition of 10 μL of alamarBlue™ (BioSource), incubation at 33° C. for 45 minutes and reading in a fluorescence plate reader, excitation: 544 nm, emission: 590 nm. The inhibitory concentration 50% (IC50) was calculated as the concentration of compound that increased the percentage fluorescence in the compound-treated virus-infected cells to 50% of that produced by compound-free, uninfected cells. The toxicity concentration 50% (TC50) was calculated as the concentration of compound that decreased the percentage fluorescence in the compound-treated, uninfected cells to 50% of the compound-free, uninfected cells. The therapeutic index (Ti) was calculated by dividing the […].

HeLa-H1 cells = assay: Toxicity in uninfected cells of the cell culture 3C-protease assay; assay type: cell-based; set-up: key to TC50: —: the hyphens indicate no value was able to be calculated (i.e. the drug response did not cross the 50% point); conditions: compound-treated uninfected HeLa-H1 cells, 48 hours, alamarBlue, dilution series 250-0.98 μM, several values per compound = repeat determinations; for CC50: read-out: TC50 (the source's name)
Protocol: as §1

[2] = biological target: T1, human recombinant caspase-3 (Homo sapiens, UniProt P42574); assay: In vitro high throughput caspase-3 assay; assay type: biochemical; conditions: for Ki: calculated from IC50 according to Equation 1, read-out: Ki(app); for IC50: fixed substrate concentration of 55 μM, inhibitors 75 to 0.067 μM in duplicate; for Percent Activity: percentage of the positive control, 20-250 μM test compound, lower = better inhibition, negative = better than control caspase inhibitor
T1 construct: purchased Sigma
T1 sequence (P42574 29-175 limits assumed): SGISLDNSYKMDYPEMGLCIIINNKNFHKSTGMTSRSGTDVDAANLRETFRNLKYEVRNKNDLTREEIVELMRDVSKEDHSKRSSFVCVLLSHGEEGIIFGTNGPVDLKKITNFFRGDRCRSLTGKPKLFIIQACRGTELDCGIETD
T1 sequence (P42574 176-277 limits assumed): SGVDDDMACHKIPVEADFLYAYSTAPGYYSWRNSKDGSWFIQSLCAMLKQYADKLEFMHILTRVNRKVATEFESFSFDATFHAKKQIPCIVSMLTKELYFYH
Protocol: Purified Human recombinant caspase-3, fluorescence labeled substrate (Acetyl-Asp-Glu-Val-Asp-7-amino-4-trifluoromethyl coumarin), and known inhibitor (Z-Asp-Glu-Val-Asp-fluoromethyl ketone) can be purchased from Sigma Chemical Co. (St. Louis, Mo.). The enzyme reactions are carried out at room temperature in 10 mM PIPES pH=7.4, 2 mM EDTA, 0.1% CHAPS, 5 mM DTT reaction buffer. Each well on the 96 well plate contains the above reaction buffer plus 55 μM fluorescence labeled substrate, 0.125 μg caspase-3, and 20-250 μM test compound. Positive and negative controls are present on each assay plate. A standard curve is generated using 7-amino-4-trifluoromethyl coumarin in the concentration range from 0.15 μM to 5.0 μM. The reactions are preferably read every 0.5 hours using a fluorescence microtiter plate reader set for 390 nm excitation and 538 nm emission for the first 4 hours after which the plates are left at room temperature overnight. One reading is taken the next morning as a final measurement.
To determine the caspase inhibitory activity of these compounds, the in vitro high throughput caspase-3 assay presented herein was utilized. Purified human recombinant caspase-3, fluorescence labeled substrate (Acetyl-Asp-Glu-Val-Asp-7-amino-4-trifluoromethyl coumarin), and known inhibitor (Z-Asp-Glu-Val-Asp-fluoromethyl ketone) were purchased from Sigma. The enzyme reactions were carried out at room temperature in 10 mM PIPES pH=7.4, 2 mM EDTA, 0.1% CHAPS, 5 mM DTT reaction buffer. Each well on the 96 well plate contained the above reaction buffer plus 55 μM fluorescence labeled substrate, 0.125 μg caspase-3, and 20-250 μM test compound. Positive and negative controls were present on each assay plate. A standard curve was generated using 7-amino-4-trifluoromethyl coumarin in the concentration range from 0.15 μM to 5.0 μM. The reactions were read every 0.5 hours using a fluorescence microtiter plate reader set for 390 nm excitation and 538 nm emission for the first 4 hours after which the plates were left at room temperature overnight. One reading was taken the next morning as a final measurement.
Ki determinations were carried out using the above assay system. […] Ki(app) was calculated according to Equation 1: [formula]
The concentration of inhibitors ranged from 75 to 0.067 μM with each inhibitor concentration assayed in duplicate. The Km for the substrate was determined from a standard Lineweaver-Burke plot.

cysteine protease = assay: Cysteine protease inhibitory activity, no method given
[3] = biological target: T2, Human Rhinovirus serotype 1A 3C Protease (Human rhinovirus 1A, UniProt P23008); assay: 3C Protease Biochemical Assay (FRET); conditions: 30° C., 2-6uM substrate, 416 nM 3CP
T2 construct: used to clone the 3C Protease into the expression vector pET16-b; made in house; host or cells: E. coli BL21-DE3-pLys-S
T2 sequence (P23008 1515-1697): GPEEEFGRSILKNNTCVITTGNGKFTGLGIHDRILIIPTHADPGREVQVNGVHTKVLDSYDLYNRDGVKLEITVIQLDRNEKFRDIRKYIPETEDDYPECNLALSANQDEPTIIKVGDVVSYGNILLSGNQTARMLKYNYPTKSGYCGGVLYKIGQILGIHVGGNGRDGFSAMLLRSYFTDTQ
Protocol: Human Rhinovirus serotype 1A (ATCC) was used to clone the 3C Protease into the expression vector pET16-b and transformed for production into the E. coli strain BL21-DE3-pLys-S. 3C Protease expression was induced with 1 mM IPTG at 25° C. and purified from the soluble protein extract by chromatography on a SourceQ (Pharmacia) followed by gel filtration. HRV 3CP activity was measured by fluorescence resonance energy transfer using a dimodified decapeptide substrate MOC-[…]DNP-NH2 (7-methoxy coumarin-4-acetic acid fluorochrome and dinitrophenol quencher) with a Km value of 16.8 μM. Inhibition was measured as a change in initial velocity (V0) as a function of inhibitor (I) concentration and substrate (S) concentration. […] Fluorescence was monitored by excitation at 328 nm and emission at 393 nm with 10 nm cutoffs. Data were analyzed with the nonlinear regression analysis program EnzFitter (BioSoft) with the equation:
Ki=(I/((VmaxxS)/V0)/Ks)−I−S
Substrate concentrations used were lower than the Km of the substrate (16.8 uM) so no corrections for an S/Km term were used.

SMILES	IC50 [1] [µM]	CC50 (HeLa-H1 cells) [µM]	Ki [2] [µM]	IC50 [2] [µM]	Percent Activity [2] [%]	cysteine protease inhibitory activity (cysteine protease)	also measured
O=C(O)CN(CC(=O)O)Cc1cc2c(c(O)c1O)C(=O)c1ccccc1C2=O [cpi0136.0009]	0.2	> 30	6.16	38.8	−0.4239	–	–
CC(C)=CC[C@@H](O)C1=CC(=O)c2c(O)ccc(O)c2C1=O [shikonin]	–	–	–	–	–	exhibit cysteine protease inhibitory activity	–
CCn1cc(C(=O)O)c(=O)c2ccc(C)nc21 [cpi0176, nalidixic acid, reference compound]	–	–	–	–	–	–	potency as an antirhinoviral agent relative to potency as an antibiotic agent [1]: 10 fold; TC50 (HeLa-H1 cells): —, and —; Ki [3]: 195 µM
O=C(O)CCNc1ccc(O)c2c1C(=O)c1ccccc1C2=O [cpi0136.0012]	30	> 30	1.24	7.82	7.846	–	–
CC(C)=CC[C@H](O)C1=CC(=O)c2c(O)ccc(O)c2C1=O [alkannin]	–	–	–	–	–	exhibit cysteine protease inhibitory activity	–
